One compound from patent US20190110478A1, “ANTIBACTERIAL COMPOSITION, ANTIBACTERIAL FILM, ANTIBACTERIAL FILM-ATTACHED SUBSTRATE, METHOD FOR MANUFACTURING ANTIBACTERIAL FILM, AND METHOD FOR MANUFACTURING ANTIBACTERIAL FILM-ATTACHED SUBSTRATE” (FUJIFILM Corporation, priority 2016, published 2019) can be followed below.

A short description of this data set: Viscosity characteristics of water-insoluble nitrogen-containing compound (rotary viscometer). The note with it: 1% by mass solid content in propylene glycol monomethyl ether, 25° C. In kind it is physicochemical. As for the experimental part: In a case in which a water-insoluble nitrogen-containing compound is dissolved in propylene glycol monomethyl ether to obtain a solution having a solid content of 1% by mass, the viscosity of the solution at 25° C. as measured using a rotary viscometer is 10 mPa·s or higher.

The structures appear in SMILES notation.

In turn, `CC(C)(C)c1ccc(O)c(-n2nc3ccccc3n2)c1` [TINUVIN PS] showed a Viscosity of solution of 2.1 mPa·s.
